Measured values published in patent publication US20230135894A1, “MK2 DEGRADERS AND USES THEREOF” (Kymera Therapeutics, Inc., priority 2021, published 2023).

What was measured:
MK2 [1] = molecular target: T1, MK2 (Homo sapiens, UniProt P49137); assay: MK2 degradation in human SW1353 cells (MSD, 24 h); format: cell-based; parameters: endogenous in cells; host or cells: SW-1353 (ATCC HTB-94); conditions: for Dmax: read-out: MK2 MSD SW 1353 24 h Dmax %; for DC50: read-out: MK2 MSD SW1353 degradation 24 h GMean External Abs DC50
In short: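 SW1353 chondrosarcoma cells were treated with up to 10-point serial dilutions (0.1% DMSO) for 24 h at 37 °C, then lysed in RIPA buffer. MK2 levels were quantified by MSD sandwich immunoassay; DC50 came from a 4-parameter logistic fit normalised to DMSO-treated cells (high) and lysis buffer (low).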

MK2 [2] = molecular target: T1, MK2; assay: MK2 degradation in human THP-1 monocytic cells (MSD, 24 h); format: cell-based; parameters: endogenous in cells; conditions: for Dmax: THP-1, THP-1 cells; for DC50: THP-1 cells, read-out: MK2 MSD THP-1 degradation 24 h GMean External Abs DC50
In short: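 THP-1 cells (200,000/well) treated 24 h at 37 °C with compound dilution series (up to 10 points, 0.1% DMSO). MK2 in RIPA lysates quantified by MSD sandwich immunoassay. DC50 from 4-parameter logistic fit, DMSO-treated cells as high and lysis buffer as low signal.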

T1 sequence (P49137 whole entry): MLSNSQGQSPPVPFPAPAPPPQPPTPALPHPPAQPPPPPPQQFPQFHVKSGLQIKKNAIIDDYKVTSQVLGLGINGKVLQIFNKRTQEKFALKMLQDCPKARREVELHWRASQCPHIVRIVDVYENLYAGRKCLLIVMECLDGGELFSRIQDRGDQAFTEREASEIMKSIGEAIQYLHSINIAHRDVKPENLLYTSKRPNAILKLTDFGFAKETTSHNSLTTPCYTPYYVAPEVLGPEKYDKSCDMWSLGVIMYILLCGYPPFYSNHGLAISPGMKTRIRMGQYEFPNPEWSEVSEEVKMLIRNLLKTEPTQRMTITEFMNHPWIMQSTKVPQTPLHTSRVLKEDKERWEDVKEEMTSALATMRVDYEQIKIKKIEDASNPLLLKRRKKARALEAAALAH

Row | Structure (SMILES) | Dmax (MK2 [1]) | DC50 (MK2 [1]) | Dmax (MK2 [2]) | DC50 (MK2 [2])
1 | CCc1cc(-c2cc(-c3cc4c([nH]3)C3(CC3)CNC4=O)ccn2)cc(CC)c1N1CCN(CC2CCN(c3ccc4c(c3)n(C)c(=O)n4C3CCC(=O)NC3=O)CC2)CC1 (stereo not drawn) [Compound I-448] | 50 to 75% | 0.001 to 0.01 µM | < 50% | > 0.1 µM
2 | CN1CCc2[nH]c(-c3ccnc(-c4ccc(N5CCN(CC6CCN(c7ccc8c(c7)n(C)c(=O)n8C7CCC(=O)NC7=O)CC6)CC5)cc4)c3)cc2C1=O (stereo not drawn) [Compound I-450] | < 50% | > 0.1 µM | < 50% | > 0.1 µM
3 | C[C@@H]1CNc2c(sc3ccc4nc(N5CCN(C6CC7(CCN(c8ccc9c(c8)n(C)c(=O)n9C8CCC(=O)NC8=O)CC7)C6)CC5)ccc4c23)C(=O)N1 (stereo partly drawn) [Compound I-451] | > 75% | < 0.001 µM | > 75% | < 0.001 µM
4 | C[C@@H]1CNc2c(sc3ccc4nc(N5C[C@H]6CC[C@@H]5CN6CC5CCN(c6cccc7c6n(C)c(=O)n7C6CCC(=O)NC6=O)CC5)ccc4c23)C(=O)N1 (stereo partly drawn) [Compound I-452] | 50 to 75% | 0.001 to 0.01 µM | 50 to 75% | 0.01 to 0.1 µM
5 | Cn1c(=O)n(C2CCC(=O)NC2=O)c2ccc(N3CCC(CN4CCN(c5ccc6occc6c5-c5cc(Nc6ccnc(N)n6)cc6cn[nH]c56)CC4)CC3)cc21 (stereo not drawn) [Compound I-453] | < 50% | > 0.1 µM | < 50% | > 0.1 µM
6 | Cn1c(=O)n(C2CCC(=O)NC2=O)c2ccc(N3CCC(CN4CCN(c5ccc6cc(-c7cc(Nc8ccnc(N)n8)cc8cn[nH]c78)oc6c5)CC4)CC3)cc21 (stereo not drawn) [Compound I-454] | < 50% | > 0.1 µM | < 50% | > 0.1 µM
7 | Cn1c(=O)n(C2CCC(=O)NC2=O)c2ccc(N3CCC(CN4CCN(c5cc(C#N)cc(-n6cc(-c7ccc8c(c7)CCNC8=O)c(N)n6)c5)CC4)CC3)cc21 (stereo not drawn) [Compound I-458] | < 50% | > 0.1 µM | < 50% | > 0.1 µM
8 | COc1cc(N2CCN(CC3CCN(c4ccc5c(c4)n(C)c(=O)n5C4CCC(=O)NC4=O)CC3)CC2)cc(-n2cc(-c3ccc4c(c3)CCNC4=O)c(N)n2)c1 (stereo not drawn) [Compound I-459] | < 50% | > 0.1 µM | < 50% | > 0.1 µM
9 | COc1cccc(-c2cc(N3CCN(CC4CCN(c5ccc6c(c5)n(C)c(=O)n6C5CCC(=O)NC5=O)CC4)CC3)cc(-n3cc(-c4ccc5c(c4)CCNC5=O)c(N)n3)c2)c1 (stereo not drawn) [Compound I-460] | < 50% | > 0.1 µM | < 50% | > 0.1 µM
10 | Cn1c(=O)n(C2CCC(=O)NC2=O)c2ccc(N3CCC(CN4CCN(c5cc(-c6ccc7cc[nH]c7c6)cc(-n6cc(-c7ccc8c(c7)CCNC8=O)c(N)n6)c5)CC4)CC3)cc21 (stereo not drawn) [Compound I-461] | > 75% | 0.001 to 0.01 µM | 50 to 75% | 0.01 to 0.1 µM
11 | Cc1ccc(NC(=O)c2cccc(C(F)(F)F)c2)cc1N1Cc2cnc(Nc3ccc(N4CCN(CCCCCC(=O)N[C@H](C(=O)N5C[C@H](O)C[C@H]5C(=O)N[C@@H](C)c5ccc(-c6scnc6C)cc5)C(C)(C)C)CC4)nc3)nc2N(C)C1=O [Compound I-462] | > 75% | 0.01 to 0.1 µM | > 75% | 0.001 to 0.01 µM
12 | Cc1ccc(NC(=O)c2cccc(C(F)(F)F)c2)cc1N1Cc2cnc(Nc3ccc(N4CCN(CCCCC(=O)N[C@H](C(=O)N5C[C@H](O)C[C@H]5C(=O)N[C@@H](C)c5ccc(-c6scnc6C)cc5)C(C)(C)C)CC4)nc3)nc2N(C)C1=O [Compound I-463] | > 75% | 0.001 to 0.01 µM | > 75% | 0.001 to 0.01 µM
